Source: US7767240B2, “Microbiological control in poultry processing” (priority 2001, dated 2010)
Several values for one entry are separate records, joined by “and”; a condition that tells them apart may be missing. Identical values can stand only once.

Experiments:
[1] = tested on: Pseudomonas aeruginosa (ATCC 15442) biofilm; assay: MBEC biofilm eradication test (Calgary biofilm device); format: cell-based; conditions: one-hour biocide contact time; for MBEC (minimum biofilm eradication concentration): individual determinations
Excerpt: Table 45 summarizes test results performed at MBEC Biofilm Technologies, Inc., Calgary, Canada on the effectiveness of various biocides on biofilm removal. The test procedure, developed at the University of Calgary, utilizes a device which allows the growth of 96 identical biofilms under carefully controlled conditions. The device consists of a two-part vessel comprised of an upper plate containing 96 pegs that seals against a bottom plate. The bottom plate can consist of either a trough (for biofilm growth) or a standard 96-well plate (for biocide challenge). The biofilms develop on the 96 pegs. The device has been used as a general method for evaluating the efficacy of antibiotics and biocides towards biofilms. See in this connection H. Ceri, et al., “The MBEC Test: A New In Vitro Assay Allowing Rapid Screening for Antibiotic Sensitivity of Biofilm”, Proceedings of the ASM, 1998, 89, 525; Ceri, et al., “Antifungal and Biocide Susceptibility testing of Candida Biofilms using the MBEC Device”, Proceedings of the Interscience Conference on Antimicrobial Agents and Chemotherapy, 1998, 38, 495; and H. Ceri, et al., “The Calgary Biofilm Device: A New Technology for the Rapid Determination of Antibiotic Susceptibility of Bacterial Biofilms”, Journal of Clinical Microbiology, 1999, 37, 1771-1776.
Six biocide systems were evaluated using the above test procedure and test equipment. Five of these systems were oxidizing biocides, viz., chlorine (from NaOCl), halogen (from NaOCl+NaBr), halogen (from BCDMH), bromine (from DBDMH), and chlorine (from trichloroisocyanuric acid), all expressed as bromine as Br2 in mg/L, so that all test results were placed on the same basis. The sixth biocide was glutaraldehyde, a non-oxidizing biocide.
These biocide systems were used to challenge biofilms of Pseudomonas aeruginosa (ATCC 15442). This is a Gram (−) bacterium which is ubiquitous in microbiological slimes found in many water systems. See in this connection J. W. Costerton and H. Anwar, “Pseudomonas aeruginosa: The Microbe and Pathogen”, in Pseudomonas aeruginosa Infections and Treatment, A. L. Baltch and R. P. Smith editors, Marcel Dekker publishers, New York, 1994. In the field of poultry processing, S. Notermans, J. Dormans, and G. C. Mead, Biofouling, 1991, Vol. 5, pages 21-36, report observation of biofilms in poultry slaughter houses by use of scanning electron microscopy.
In Table 45 the MBEC (minimum biofilm eradication concentration) results presented are for the one-hour biocide contact time used in the test. The values given for the halogen containing biocides are expressed in terms of mg/L of bromine as Br2. The data on the glutaraldehyde is in terms of mg/L as active ingredient. […] In fact, only slightly more than one-half as much bromine from DBDMH was required to remove the biofilm as compared to the total halogen, expressed as Br2, that was required from BCDMH.

Salmonella = Salmonella positive samples, simulated USDA HACCP detection (Example 6); format: cell-based, Salmonella enteritidis; conditions: for Salmonella Positive Samples (Number per 51): birds inoculated with Salmonella prior to chilling
Description: The objective of this study was to determine the effect of Clorox® bleach and 1,3-dibromo-5,5-dimethylhydantoin (DBDMH) on individual carcass bacteria field strains after 1.5 hour in a chill tank solution and spoilage 20-day shelf life longevity (caused by bacteria contamination) in a Graded Level Study Model. After normal processing of 56-day-old birds, carcasses were immersed first in a warm bath containing 10^4 CFU's per mL Escherichia coli, 10^4 CFU's per mL Salmonella enteritidis, 10^4 CFU's per mL Pseudomonas aeruginosa, 10^4 CFU's per mL Campylobacter jejuni, and 10^4 CFU's per mL spoilage bacteria each from two strains (Listeria monocytogenes and Shigella sonnei). Carcasses were then immersed in a chill tank “soup”, containing normal organic fluids (blood, fat, skin, and meat particles) and containing various disinfectants (termed test materials). These tests were conducted at pH 8 (adjusted by trisodium phosphate). Skin pigmentation (Minolta Color Meter L value or Lightness, a value or redness and b value or yellowness) was determined before and after processing. Post-chilling skin bacteria of various strains were determined over a 20-day period. […] After salmonella infection in chill tanks, USDA HACCP salmonella detection was simulated and reported.
A DBDMH stock solution and DBDMH test solutions of the concentrations specified in Table 33, a bacteria stock solution, and a “chicken soup” were prepared as in Example 3. In addition, the bacterial broth treatments, the whole bird wash sampling procedure, and the methodologies used for quantitative or qualitative determinations for bacterial organisms were conducted as in Example 3.
The trial events and experimental design used in this group of tests were the same as in Example 5 with the following exceptions: • a) The temperature during the 20-day period of storage in the refrigerator was […]. • b) Observations of the degree of “bloating” (defined as water or air additions under the skin area considered objectionable) were conducted on all processed birds. • c) On each of sampling days 0, 2, 4, 6, 8, 10, 12, 14, 16, 18, and 20, ten carcasses from each treatment were analyzed by removing 23.8 cm^2 of skin from the breast right up to the neck using a template and a sterile scalpel. Each skin sample was placed in a bag with 15 mL Butterfield's Phosphate Buffer Solution (BPBS) added and treated in a Stomacher bag for 60 seconds. A 10-fold dilution series of the mixture was made in BPBS and two parallel samples of […] each were spread on the appropriate plate count agar for determination of the total viable numbers. The plates were incubated at 35° C. for 24 hours. Mean values were calculated from the two determinations of the three samples taken from each combination of chilling and storage. Bacterial numbers were reported as pooled or averaged log10 colony-forming units (CFU's) per square centimeter. • d) Also on sampling day 0, 102 total of the remaining 110 carcasses from each treatment (all bloating and oddly processed birds were removed) were “whole bird” washed by the sampling procedure described in Example 3. Salmonella detection were noted and reported as number of positive salmonella colonies per 51 birds and % of total.

Row | Structure (SMILES) | MBEC, avg. [1] | MBEC (minimum biofilm eradication concentration) [1] | Salmonella Positive Samples (Number per 51) (Salmonella; 5 ppm, control 32/51) | Salmonella Positive Samples (% of total) (Salmonella; 5 ppm, control 62.74%) [%] | Salmonella Positive Samples (% of total) (Salmonella; 10 ppm) [%] | Salmonella Positive Samples (Number per 51) (Salmonella; 10 ppm) | Salmonella Positive Samples (% of total) (Salmonella; 15 ppm) [%] | Salmonella Positive Samples (Number per 51) (Salmonella; 15 ppm) | Salmonella Positive Samples (% of total) (Salmonella; 20 ppm) [%] | Salmonella Positive Samples (Number per 51) (Salmonella; 20 ppm) | Salmonella Positive Samples (% of total) (Salmonella; 25 ppm) [%] | Salmonella Positive Samples (Number per 51) (Salmonella; 25 ppm)
1 | CC1(C)C(=O)N(Br)C(=O)N1Br [DBDMH, 1,3-dibromo-5,5-dimethylhydantoin] | 1.4 mg/L of bromine as Br2 | 1.4 mg/L of bromine as Br2 and 1.4, 1.4 mg/L of bromine as Br2 | 7/51 | 13.73 | 7.84 | 4/51 | 3.92 | 2/51 | 1.96 | 1/51 | 0.00 | 0/51
2 | CC1(C)C(=O)N(Cl)C(=O)N1Br [BCDMH, N,N′-bromochloro-5,5-dimethylhydantoin] | 2.5 mg/L of bromine as Br2 | 2.5, 2.5 mg/L of bromine as Br2 |  |  |  |  |  |  |  |  |  | 
